As usually defined, the IC50 is the concentration that inhibits the measured activity by half.

The first test is described as follows: Antagonist activity at PAR4 in human platelet rich plasma assessed as inhibition of gamma-PAR4 agonist peptide (AYPGKF-NH2)-induced platelet aggregation preincubated for 5 mins followed by peptide addition and measured after 5 mins by aggregometer.
With `COCc1ncc2c(-c3nc4cc(F)c(OCCOC(=O)Nc5cc(F)cc(C#N)c5)cc4s3)cc(C)cc2n1`, the IC50 is 9.5 nM.
`COc1ncc2c(-c3nc4cc(F)c5c(c4s3)C[C@H](COC(=O)Nc3cccc(C#N)c3)O5)cc(C)cc2n1`: the IC50 is 6.4 nM.
Regarding `COc1ncc2c(-c3nc4cc(F)c5c(c4s3)C[C@H](COC(=O)Nc3cc(F)cc(C#N)c3)O5)cc(C)cc2n1`, the IC50 was 3.5 nM.

A short description of a further test: Antagonist activity at PAR4 in mouse washed platelets assessed as inhibition of gamma-PAR4 agonist peptide (AYPGKF-NH2)-induced platelet aggregation preincubated for 5 mins followed by peptide addition and measured after 5 mins by aggregometer.
For the molecule `COc1cc(Cl)c2nc(-c3cc(C)cc4cncnc34)sc2c1`, the IC50 was determined as 72 nM.
Same read-out and setting: next, `COc1cc(Cl)c2nc(-c3cc(C)cc4cnc(C)nc34)sc2c1`: 64 nM; `COc1cc(Cl)c2nc(-c3cc(C)cc4cnc(OC)nc34)sc2c1`: 32 nM; `COc1cc(Cl)c2nc(-c3cc(C)cc4cnc(OC(F)F)nc34)sc2c1`: 87 nM.
On the same count and under the same terms, next, `CCOc1ncc2cc(C)cc(-c3nc4c(Cl)cc(OC)cc4s3)c2n1`: 567 nM.
The same measure, in the same setting: next, `COc1cc(Cl)c2nc(-c3cc(C)cc4cnc(OC(C)C)nc34)sc2c1`: 773 nM; `COc1cc(Cl)c2nc(-c3cc(C)cc4cnc(OCC(C)C)nc34)sc2c1`: > 1000 nM; `COc1cc(Cl)c2nc(-c3cc(C)cc4cnc(OC5CCCC5)nc34)sc2c1`: 986 nM.
On to `COCCOc1ncc2cc(C)cc(-c3nc4c(Cl)cc(OC)cc4s3)c2n1`, for which the IC50 was > 1000 nM.
Same read-out and setting: the same measure for `COCCCOc1ncc2cc(C)cc(-c3nc4c(Cl)cc(OC)cc4s3)c2n1`: 963 nM.
With `COc1cc(Cl)c2nc(-c3cc(C)cc4cnc(SC)nc34)sc2c1`, the IC50 is 89 nM.
In the case of `CNc1ncc2cc(C)cc(-c3nc4c(Cl)cc(OC)cc4s3)c2n1`, the IC50 was 98 nM.
Same read-out and setting: next, `COc1cc(Cl)c2nc(-c3cc(C)cc4cnc(N(C)C)nc34)sc2c1`: 105 nM.
In the case of `COc1cc(Cl)c2nc(-c3cc(C)cc4cnc(N5CCOCC5)nc34)sc2c1`, the IC50 worked out at 220 nM.
The same measure, in the same setting: next, `COc1cc(Cl)c2nc(-c3cc(C)cc4cnc(N5CCCCC5)nc34)sc2c1`: 335 nM.
With `COc1cc(Cl)c2nc(-c3cc(C)cc4cnc(N5CCC6(CC5)OCCO6)nc34)sc2c1`, the IC50 is > 1000 nM.
The same measure, in the same setting: the same measure for `COc1cc(Cl)c2nc(-c3cc(C)cc4cnc(N5CC6(COC6)C5)nc34)sc2c1`: > 1000 nM; for `COc1ncc2cc(C)cc(-c3nc4ccccc4s3)c2n1`: 563 nM; for `COc1ncc2cc(C)cc(-c3nc4c(C)cc5c(c4s3)OCCO5)c2n1`: 117 nM.
In the case of `COc1ncc2cc(C)cc(-c3nc4c(Cl)cc(Cl)cc4s3)c2n1`, the IC50 is 356 nM.
Same read-out and setting: the same measure for `COc1ccc2nc(-c3cc(C)cc4cnc(OC)nc34)sc2c1`: 89 nM.
Still for that read-out and setting: next, `COc1cc(F)c2nc(-c3cc(C)cc4cnc(OC)nc34)sc2c1`: 41 nM; `COc1ncc2cc(C)cc(-c3nc4cc(F)c(OC)cc4s3)c2n1`: 30 nM.
As to `COc1cc(Cl)c2nc(-c3cc(C)cc4nc(OC)ncc34)sc2c1`, the IC50 came to 46 nM.
Still for that read-out and setting: the same measure for `COc1cc(F)c2nc(-c3cc(C)cc4nc(OC)ncc34)sc2c1`: 80 nM.
The same measure, in the same setting: next, `COc1ccc2nc(-c3cc(C)cc4nc(OC)ncc34)sc2c1`: 103 nM.
Take `COc1cc(OC)c2nc(-c3cc(C)cc4nc(OC)ncc34)sc2c1`: the IC50 amounted to 223 nM.
Same read-out and setting: next, `COc1ncc2c(-c3nc4ccccc4s3)cc(C)cc2n1`: 368 nM; `COc1cc(C)c2nc(-c3cc(C)cc4nc(OC)ncc34)sc2c1`: 163 nM.
The same measure, in the same setting: the same measure for `COc1ncc2c(-c3nc4cc(F)c(OC)cc4s3)cc(C)cc2n1`: 21 nM; for `COc1ncc2c(-c3nc4cc(F)c(OCCO)cc4s3)cc(C)cc2n1`: 27 nM; for `CCOc1ncc2c(-c3nc4c(Cl)cc(OC)cc4s3)cc(C)cc2n1`: 223 nM.
Take `CCOc1ncc2c(-c3nc4c(F)cc(OC)cc4s3)cc(C)cc2n1`: the IC50 stood at 274 nM.
Still for that read-out and setting: the same measure for `CCOc1ncc2c(-c3nc4cc(F)c(OC)cc4s3)cc(C)cc2n1`: 369 nM; for `COc1cc(Cl)c2nc(-c3cc(C)cc4nc(OC(C)C)ncc34)sc2c1`: 456 nM; for `COc1ccc2nc(-c3cc(C)cc4nc(OC(C)C)ncc34)sc2c1`: 362 nM.
On the same count and under the same terms, the same measure for `COCOc1ncc2c(-c3nc4c(Cl)cc(OC)cc4s3)cc(C)cc2n1`: 45 nM; for `COCOc1ncc2c(-c3nc4c(F)cc(OC)cc4s3)cc(C)cc2n1`: 89 nM; for `COCOc1ncc2c(-c3nc4cc(F)c(OC)cc4s3)cc(C)cc2n1`: 25 nM.
With `COCOc1ncc2c(-c3nc4ccc(OC)cc4s3)cc(C)cc2n1`, the IC50 was 109 nM.
Same read-out and setting: the same measure for `CNc1ncc2c(-c3nc4c(Cl)cc(OC)cc4s3)cc(C)cc2n1`: 223 nM; for `COc1cc(Cl)c2nc(-c3cc(C)cc4nc(SC)ncc34)sc2c1`: 136 nM.
The same measure, in the same setting: next, `COc1cc2sc(-c3cc(C)cc4nc(SC)ncc34)nc2cc1F`: 96 nM; `COc1ccc2nc(-c3cc(C)cc4nc(SC)ncc34)sc2c1`: 223 nM; `COc1cc(OC)c2nc(-c3cc(C)cc4nc(SC)ncc34)sc2c1`: > 1000 nM.
On the same count and under the same terms, the same measure for `COCc1ncc2c(-c3nc4cc(F)c(OCCOC(=O)Nc5cccc(C#N)c5)cc4s3)cc(C)cc2n1`: 69 nM.
Consider `COCc1ncc2c(-c3nc4cc(F)c(OCCOC(=O)Nc5cc(F)cc(C#N)c5)cc4s3)cc(C)cc2n1`, for which the IC50 came out at 19 nM.
With `COCc1ncc2c(-c3nc4cc(F)c(OCCOC(=O)Nc5ccc(C(=O)N6CCOCC6)cc5)cc4s3)cc(C)cc2n1`, the IC50 stood at 89 nM.
On the same count and under the same terms, the same measure for `COCc1ncc2c(-c3nc4cc(F)c(OCCOC(=O)N5CCOCC5)cc4s3)cc(C)cc2n1`: 756 nM; for `COCc1ncc2c(-c3nc4cc(F)c(OCCOC(=O)OC)cc4s3)cc(C)cc2n1`: 643 nM.
With `COc1ncc2c(-c3nc4cc(F)c5c(c4s3)C[C@H](COC(=O)Nc3cccc(C#N)c3)O5)cc(C)cc2n1`, the IC50 was found to be 15 nM.
Same read-out and setting: the same measure for `COc1ncc2c(-c3nc4cc(F)c5c(c4s3)C[C@H](COC(=O)Nc3cc(F)cc(C#N)c3)O5)cc(C)cc2n1`: 8.6 nM; for `COc1ncc2c(-c3nc4cc(F)c5c(c4s3)C[C@H](COC(=O)Nc3ccc(OC)c(F)c3)O5)cc(C)cc2n1`: 169 nM.
The same measure, in the same setting: next, `COc1ccc(NC(=O)OC[C@H]2Cc3c(c(F)cc4nc(-c5cc(C)cc6nc(OC)ncc56)sc34)O2)c(C)c1`: 187 nM.
The same measure, in the same setting: next, `COc1ccc(NC(=O)OC[C@H]2Cc3c(c(F)cc4nc(-c5cc(C)cc6nc(OC)ncc56)sc34)O2)cc1`: 96 nM.
In the case of `COc1ncc2c(-c3nc4cc(F)c5c(c4s3)C[C@H](COC(=O)Nc3ccc(C)cc3)O5)cc(C)cc2n1`, the IC50 stood at 73 nM.
For `COc1ncc2c(-c3nc4cc(F)c5c(c4s3)C[C@H](COC(=O)Nc3ccc(C)cc3F)O5)cc(C)cc2n1`, the IC50 is 51 nM.
For `COc1ccc(NC(=O)OC[C@H]2Cc3c(c(F)cc4nc(-c5cc(C)cc6nc(OC)ncc56)sc34)O2)cn1`, the IC50 was 356 nM.
Take `COc1ncc2c(-c3nc4cc(F)c5c(c4s3)C[C@H](COC(=O)Nc3cnc(C)nc3)O5)cc(C)cc2n1`: the IC50 worked out at 689 nM.
With `COc1ncc2c(-c3nc4cc(F)c5c(c4s3)C[C@H](COC(=O)Nc3ccc(C(=O)N4CCOCC4)cc3)O5)cc(C)cc2n1`, the IC50 is 417 nM.
Turning to `COc1ncc2c(-c3nc4cc(F)c5c(c4s3)C[C@H](COC(=O)N3CCOCC3)O5)cc(C)cc2n1`, the IC50 was determined as 168 nM.
Same read-out and setting: the same measure for `COC(=O)OC[C@H]1Cc2c(c(F)cc3nc(-c4cc(C)cc5nc(OC)ncc45)sc23)O1`: 535 nM; for `COc1ncc2c(-c3nc4cc(F)c5c(c4s3)C[C@@H](COC(=O)Nc3ccc(C(=O)N4CCOCC4)cc3)O5)cc(C)cc2n1`: 165 nM; for `COc1ncc2c(-c3nc4cc(F)c5c(c4s3)C[C@@H](COC(=O)Nc3cc(F)cc(C#N)c3)O5)cc(C)cc2n1`: 109 nM.
Same read-out and setting: the same measure for `COc1ncc2c(-c3nc4cc(F)c5c(c4s3)C[C@@H](COC(=O)N3CCOCC3)O5)cc(C)cc2n1`: 304 nM.
